In PMC12221116, “Novel Quinazolinones Active against Multidrug‐Resistant Mycobacterium Tuberculosis: Synthesis, Antimicrobial Evaluation, and in Silico Exploration of Penicillin‐Binding Protein 1A as a Potential Target” (Chemmedchem, 2025):
≈ marks a conversion by molar mass, not a printed value. Read-outs that look alike come from different tables or passages of the source.

Assays:
[1] = tested on: M. kansasii; assay: Microplate Alamar Blue assay, MIC; type: cell-based, Mycobacterium kansasii; conditions: for MIC: Mycobacterium kansasii, read-out: Antimycobacterial Activity MIC M. kans.
[2] = tested on: M. smegmatis; assay: Microdilution broth resazurin assay, MIC; type: cell-based, Mycolicibacterium smegmatis
[3] = tested on: M. avium; assay: Microdilution broth resazurin assay, MIC; type: cell-based, Mycobacterium avium
[4] = tested on: M. aurum; assay: Microdilution broth resazurin assay, MIC; type: cell-based, Mycolicibacterium aurum
[5] = tested on: Mtb H37Ra; assay: Microdilution broth resazurin assay, MIC; type: cell-based, Mycobacterium tuberculosis
[6] = tested on: Mtb H37Rv; assay: Microplate Alamar Blue assay, MIC; type: cell-based, Mycobacterium tuberculosis; conditions: for MIC: Mycobacterium tuberculosis, H37RV
[7] = Mycolicibacterium smegmatis, DSM43465; internal quality controls (standards); read-out: MINIMUM INHIBITORY CONCENTRATION Mycolicibacterium smegmatis DSM 43465
[8] = Mycolicibacterium smegmatis; read-out: Antimycobacterial Activity MIC M. smeg.
[9] = Mycobacterium avium, DSM44156; internal quality controls (standards); read-out: MINIMUM INHIBITORY CONCENTRATION Mycobacterium avium DSM 44156
[10] = Mycobacterium avium; read-out: Antimycobacterial Activity MIC M. avium
[11] = Mycolicibacterium aurum, DSM43999; internal quality controls (standards); read-out: MINIMUM INHIBITORY CONCENTRATION Mycolicibacterium aurum DSM 43999
[12] = Mycolicibacterium aurum; read-out: Antimycobacterial Activity MIC M. aurum
[13] = Mycobacterium tuberculosis, H37RA, read-out: Antimycobacterial Activity MIC Mtb H37Ra
[14] = Mycobacterium tuberculosis, H37RA; internal quality controls (standards); read-out: MINIMUM INHIBITORY CONCENTRATION Mycobacterium tuberculosis H37Ra
[15] = Table S5 matching pairs series A and B
[16] = Mycobacterium avium, read-out: Antimycobacterial Activity MIC M. avium
[17] = Mycolicibacterium aurum, read-out: Antimycobacterial Activity MIC M. aurum
[18] = Microplate Alamar Blue assay, read-out: Antimycobacterial Activity MIC Mtb H37Rv
[19] = read-out: Antimycobacterial Activity MIC Mtb H37Rv, Table S5 matching pairs series A and B
[20] = Mycolicibacterium smegmatis, read-out: Antimycobacterial Activity MIC M. smeg.
[21] = Mycobacterium tuberculosis, H37RA; read-out: Antimycobacterial Activity MIC Mtb H37Ra

Row | Compound | MIC [1] [µg/mL] | MIC [3, 10] [µg/mL] | MIC [5, 13] [µg/mL] | Antimycobacterial Activity MIC M. smeg. [2] [µg/mL] | Antimycobacterial Activity MIC M. avium [3] [µg/mL] | Antimycobacterial Activity MIC M. aurum [4] [µg/mL] | Antimycobacterial Activity MIC Mtb H37Ra [5] [µg/mL] | MIC [3, 16] [µg/mL] | MIC [4, 17] [µg/mL] | MIC [6, 18] [µg/mL] | MIC [2, 20] [µg/mL] | MIC [5, 21] [µg/mL] | other results
1 | O=C(O)c1cn(C2CC2)c2cc(N3CCNCC3)c(F)cc2c1=O [CIP, ciprofloxacin, reference compound] | 0.25 (≈ 0.754 µM) | 1.56 (≈ 4.71 µM) | 0.25 (≈ 0.754 µM) |  |  |  |  |  |  |  |  |  | MIC [2, 7]: 0.0625 to 0.125 µg/mL (≈ 0.189 to 0.377 µM); MIC [2, 8]: 0.125 µg/mL (≈ 0.377 µM); MIC [3, 9]: 0.5 µg/mL (≈ 1.51 µM); MIC [4, 11]: 0.0078 to 0.0156 µg/mL (≈ 0.0235 to 0.0471 µM); MIC [4, 12]: 0.0156 µg/mL (≈ 0.0472 µM); MIC [5, 14]: 0.125 to 0.25 µg/mL (≈ 0.377 to 0.754 µM)
2 | COc1ccc(Cn2c(C)nc3ccccc3c2=O)c(OC)c1 [Compound 1] |  |  |  | ≥500 | ≥500 | ≥500 | ≥500 |  |  |  |  |  | Antimycobacterial Activity MIC M. kans. [1]: >100 µg/mL; Antimycobacterial Activity MIC M. smeg. [2, 15]: ≥ 500 µg/mL; Antimycobacterial Activity MIC M. avium [3, 15]: ≥ 500 µg/mL; Antimycobacterial Activity MIC M. aurum [4, 15]: ≥ 500 µg/mL; Antimycobacterial Activity MIC Mtb H37Rv ([6]; Microplate Alamar Blue assay): >100 µg/mL; Antimycobacterial Activity MIC Mtb H37Ra [5, 15]: ≥ 500 µg/mL
3 | Cc1nc2ccccc2c(=O)n1Cc1cccc(F)c1 [Compound 4] |  |  |  | 250 | 125 | 500 | 250 |  |  |  |  |  | Antimycobacterial Activity MIC M. kans. [1]: 50 µg/mL; Antimycobacterial Activity MIC Mtb H37Rv ([6]; Microplate Alamar Blue assay): 100 µg/mL
4 | Cc1nc2ccccc2c(=O)n1Cc1ccc(C(F)(F)F)cc1 [Compound 7] |  |  |  | 250 | 125 | 125 | 62.5 |  |  |  |  |  | Antimycobacterial Activity MIC M. kans. [1]: >100 µg/mL; Antimycobacterial Activity MIC M. smeg. [2, 15]: 250 µg/mL; Antimycobacterial Activity MIC M. avium [3, 15]: 125 µg/mL; Antimycobacterial Activity MIC M. aurum [4, 15]: 125 µg/mL; Antimycobacterial Activity MIC Mtb H37Rv ([6]; Microplate Alamar Blue assay): >100 µg/mL; Antimycobacterial Activity MIC Mtb H37Ra [5, 15]: 62.5 µg/mL
5 | Cc1nc2ccccc2c(=O)n1Cc1ccc2ccccc2c1 [Compound 8] | 50 (≈ 166 µM) |  | ≥ 250 |  | 62.5 | 62.5 | ≥250 | 62.5 (≈ 208 µM) | 62.5 (≈ 208 µM) | > 100 |  |  | Antimycobacterial Activity MIC M. kans. [1, 15]: 50 µg/mL; MIC [2, 8]: ≥ 500 µg/mL; Antimycobacterial Activity MIC M. smeg. [2, 15]: ≥ 500 µg/mL; MIC [6, 19]: > 100 µg/mL
6 | Cc1nc2ccccc2c(=O)n1Cc1cc(F)cc(C(F)(F)F)c1 [Compound 9] |  |  |  | ≥500 | 62.5 | 62.5 | 125 |  |  |  |  |  | Antimycobacterial Activity MIC M. kans. [1]: >100 µg/mL; Antimycobacterial Activity MIC Mtb H37Rv ([6]; Microplate Alamar Blue assay): >100 µg/mL
7 | Cc1nc2ccccc2c(=O)n1Cc1ccc(Cl)cc1Cl [Compound 10] |  |  |  | ≥250 | ≥250 | ≥250 | ≥250 |  |  |  |  |  | Antimycobacterial Activity MIC M. kans. [1]: >100 µg/mL; Antimycobacterial Activity MIC Mtb H37Rv ([6]; Microplate Alamar Blue assay): >100 µg/mL
8 | CC1Nc2ccccc2C(=O)N1Cc1ccc(Cl)c(Cl)c1 (stereo not drawn) [Compound 11] | > 100 | ≥ 250 | ≥ 250 |  |  |  | ≥250 |  |  | > 100 |  |  | MIC [2, 8]: ≥ 250 µg/mL; Antimycobacterial Activity MIC M. smeg. [2, 15]: ≥ 250 µg/mL; Antimycobacterial Activity MIC M. avium [3, 15]: ≥ 250 µg/mL; MIC [4, 12]: ≥ 250 µg/mL; Antimycobacterial Activity MIC M. aurum [4, 15]: ≥ 250 µg/mL; MIC [6, 19]: > 100 µg/mL
9 | Cc1nc2cc(Cl)ccc2c(=O)n1Cc1cccc(C(=O)O)c1 [Compound 12] | > 100 |  |  |  |  |  |  | ≥ 62.5 | ≥ 62.5 | > 100 | ≥ 62.5 | ≥ 62.5 | 
10 | Cc1nc2cc(Cl)ccc2c(=O)n1Cc1cccc(O)c1 [Compound 13] | > 100 | 62.5 (≈ 208 µM) |  |  |  |  |  |  | ≥ 62.5 | 50 (≈ 166 µM) | ≥ 62.5 | ≥ 62.5 | 
11 | Cc1nc2cc(Cl)ccc2c(=O)n1Cc1ccc(O)cc1 [Compound 14] | > 100 |  |  |  |  |  |  | 62.5 (≈ 208 µM) | 62.5 (≈ 208 µM) | > 100 | 62.5 (≈ 208 µM) | 62.5 (≈ 208 µM) | 
12 | COc1ccc(Cn2c(C)nc3cc(Cl)ccc3c2=O)c(OC)c1 [Compound 15] | > 100 |  | ≥ 125 | ≥125 | ≥125 | ≥125 | ≥125 | ≥ 125 | ≥ 125 | > 100 | ≥ 125 |  | MIC [6, 19]: > 100 µg/mL
13 | COc1cccc(Cn2c(C)nc3cc(Cl)ccc3c2=O)c1 [Compound 16] | > 100 | ≥ 500 | 62.5 (≈ 199 µM) | ≥125 |  | ≥125 | 62.5 |  | ≥ 125 | > 100 | ≥ 125 |  | Antimycobacterial Activity MIC M. avium [3, 15]: ≥ 500 µg/mL; MIC [6, 19]: > 100 µg/mL
14 | Cc1nc2cc(Cl)ccc2c(=O)n1Cc1ccccc1F [Compound 18] | > 100 | ≥ 500 |  |  |  |  |  |  |  | > 100 |  | ≥ 500 | MIC [2, 8]: ≥ 500 µg/mL; MIC [4, 12]: ≥ 500 µg/mL
15 | Cc1ccccc1Cn1c(C)nc2cc(Cl)ccc2c1=O [Compound 20] | > 100 | ≥ 250 | ≥ 250 |  |  |  | ≥250 |  |  | > 100 |  |  | MIC [2, 8]: ≥ 250 µg/mL; Antimycobacterial Activity MIC M. smeg. [2, 15]: ≥ 250 µg/mL; Antimycobacterial Activity MIC M. avium [3, 15]: ≥ 250 µg/mL; MIC [4, 12]: ≥ 250 µg/mL; Antimycobacterial Activity MIC M. aurum [4, 15]: ≥ 250 µg/mL; MIC [6, 19]: > 100 µg/mL
16 | Cc1nc2cc(Cl)ccc2c(=O)n1Cc1ccc(C(F)(F)F)cc1 [Compound 22] | 25 (≈ 70.9 µM) | ≥ 500 | 31.2 (≈ 88.6 µM) |  |  |  | 31.25 |  |  | > 100 |  |  | Antimycobacterial Activity MIC M. kans. [1, 15]: 25 µg/mL; MIC [2, 8]: ≥ 500 µg/mL; Antimycobacterial Activity MIC M. smeg. [2, 15]: ≥ 500 µg/mL; Antimycobacterial Activity MIC M. avium [3, 15]: ≥ 500 µg/mL; MIC [4, 12]: ≥ 500 µg/mL; Antimycobacterial Activity MIC M. aurum [4, 15]: ≥ 500 µg/mL; MIC [6, 19]: > 100 µg/mL
17 | Cc1nc2cc(Cl)ccc2c(=O)n1Cc1ccc2ccccc2c1 [Compound 23] | > 100 |  | ≥ 125 | ≥125 | ≥125 | ≥125 | ≥125 | ≥ 125 | ≥ 125 | > 100 | ≥ 125 |  | MIC [6, 19]: > 100 µg/mL
18 | Cc1nc2cc(Cl)ccc2c(=O)n1/N=C/c1ccccc1[N+](=O)[O-] [Compound 26] | > 25 |  |  |  |  |  |  | ≥ 62.5 | ≥ 62.5 | > 25 | ≥ 62.5 | ≥ 62.5 | 
19 | Cc1nc2cc(Cl)ccc2c(=O)n1/N=C/c1cccc([N+](=O)[O-])c1 [Compound 27] | > 50 |  |  |  |  |  |  | ≥ 62.5 | ≥ 62.5 | > 50 | ≥ 62.5 | ≥ 62.5 | 
20 | Cc1nc2cc(Cl)ccc2c(=O)n1/N=C/c1ccc([N+](=O)[O-])cc1 [Compound 28] | > 25 |  |  |  |  |  |  | ≥ 31.2 | ≥ 31.2 | > 25 | ≥ 31.2 | ≥ 31.2 | 
21 | Cc1nc2cc(Cl)ccc2c(=O)n1/N=C/c1ccccn1 [Compound 29] | > 25 |  |  |  |  |  |  | ≥ 31.2 | ≥ 31.2 | > 25 | ≥ 31.2 | ≥ 31.2 | 
22 | Cc1nc2cc(Cl)ccc2c(=O)n1/N=C/c1cccnc1 [Compound 30] | > 25 |  |  |  |  |  |  | ≥ 31.2 | ≥ 31.2 | > 25 | ≥ 31.2 | ≥ 31.2 | 
23 | Cc1nc2cc(Cl)ccc2c(=O)n1/N=C/c1ccncc1 [Compound 31] | > 25 |  |  |  |  |  |  | ≥ 31.2 | ≥ 31.2 | > 25 | ≥ 31.2 | ≥ 31.2 | 
24 | Cc1nc2cc(Cl)ccc2c(=O)n1/N=C/c1ccc(O)cc1O [Compound 33] | > 100 |  |  |  |  |  |  | ≥ 62.5 | ≥ 62.5 | > 100 | ≥ 62.5 | ≥ 62.5 | 
25 | CO[C@H]1/C=C/O[C@@]2(C)Oc3c(C)c(O)c4c(O)c(c(/C=N/N5CCN(C)CC5)c(O)c4c3C2=O)NC(=O)/C(C)=C\C=C\[C@H](C)[C@H](O)[C@@H](C)[C@@H](O)[C@@H](C)[C@H](OC(C)=O)[C@@H]1C [RIF, rifampicin] | 0.025 (≈ 0.0304 µM) | 0.125 (≈ 0.152 µM) |  |  |  |  |  |  |  |  |  | 0.00156 (≈ 0.0019 µM) | MIC [2, 7]: 12.5 to 25 µg/mL (≈ 15.2 to 30.4 µM); MIC [2, 8]: 12.5 µg/mL (≈ 15.2 µM); MIC [3, 9]: 0.0625 to 0.125 µg/mL (≈ 0.0759 to 0.152 µM); MIC [4, 11]: 0.39 to 0.78 µg/mL (≈ 0.474 to 0.948 µM); MIC [4, 12]: 0.39 µg/mL (≈ 0.474 µM); MIC [5, 14]: 0.00156 to 0.0031 µg/mL (≈ 0.0019 to 0.00377 µM)
